Results: patent US5550124A, “Use of peripheral-type benzodiazpine sites for treatment of CNS trauma or disease” (priority 1991, dated 1996)
“Also recorded” adds a separate entry of the source. Like-named read-outs stand apart in the source and are kept apart here.

How the values were obtained:
platelet aggregation = details: cited from earlier work
NMDA receptor [1] = details: in vivo; cited from earlier work
[2] = molecular target: T1, peripheral-type BZ receptors (Rattus norvegicus, UniProt P16257); experiment: Competitive binding assay, displacement of 3H-Ro5-4864 in brain homogenates
T1 construct: displacement of ^3 H-RO5-4864 in brain homogenates; from tissue; host or cells: brain homogenates
Description: Sprengel, R., et al., "Molecular cloning and expression of cDNA encoding a peripheral-type benzodiazepine receptor," J. Biol. Chem., 264:20415-20421 (1989).
Some of these compounds were further tested in in vivo studies.

[3] = Physical trauma (head injury) model, grip score 18 hours post-injury; type: in vivo, mice (male CF-1); details: for effectiveness in treatment of CNS trauma/damage (in words): grip score 18 h post trauma, FIGS. 1-8
Description: Two tests which can be readily performed are observation of grip score and observation of grip time in injured test animals. Another test for agonist activity is for decrease in mortality caused by the CNS injury. Mice can be treated to simulate CNS injury by a variety of methods: they can be deprived of oxygen by administration of KCN (Nauquier, A., et al., Arch. Int. Pharmacodyn., 249:330 (1981)) or by temporary tying-off of the carotid artery (Braughler, J. M. and Lainer, M. J., "The effects of large doses of methylprednisolone on neurologic recovery and survival in the Mongolian gerbil following three hours of unilateral carotid occlusion," CNS Trauma, 3:153-162 (1986)). Alternatively, blows can be administered to the head or the spinal cord of the test animal.
The following protocol was used:
The compound to be tested was weighed and suspended in a polyethylated castor oil solution ("Cremophore") (21% Cremaphore, 3% ethanol in 0.9% saline). The concentration of the solution was then adjusted for administration at a dose of 0.01 cc/gm body weight. For example, for a dose of 10 mg/Kg, the solution was made 1.0 mg/cc, and a 23 g mouse would receive 0.23 cc of this solution. The solution was sonicated for approximately 90 minutes, or until the compound is dissolved.
Male CF-1 mice (15-25 gm) were weighed and marked for identification purposes. Each individual mouse was restrained by grasping the dorsal skin of the neck until the mouse was still. An impounder was used to administer the trauma. The impounder consists of a weight suspended over the animal's head at a height sufficient to produce significant injury when dropped, and a means for immobilizing the animal (in this case, room to hold the animal in place). […] 62:882-887, 883. The mouse was positioned properly under the impounder, and the weight was released from its preset height (11 CM).
Immediately following injury, the mouse was placed under a heat lamp. At various times after injury, the drug was administered intravenously at the specified dose. The time of injury and the time of injection were recorded.
B) Measurement of Grip Score
Each mouse was evaluated 18 hours post-injury for neurological deficit. The delay of 18 hours provided time for any sedative effects of the compound to wear off. It also provided time for healing to occur. Mortality was also noted. A standard grip test, as described in Hall et al., J. Neurosurg. 68:456-461 (1988), was used. The apparatus consisted of a taut string suspended between two uprights, 60 cm in length and 40 cm above a padded table.
(§1) Each mouse was picked up by the tail and placed on the string. […] The tail was then released. Grip score was recorded based on the mouse's performance while on the string. The following criteria were used (taken from Hall, E. D., J. Neurosurg. 62:882-887 (1985)):
C) Statistical Analysis Results of the above test were analyzed for statistical significance using the Mann-Whitney U test. See R. V. Tallarida & R. B. Murray, MANUAL OF PHARMACOLOGIC CALCULATIONS WITH COMPUTER PROGRAMS, Springer-Verlag, N.Y., pp. 57-59 (1981). This test was used to compare each set of grip scores for a particular dose of a particular compound against the grip scores for the control group.

NMDA receptor [4] = details: cats; cited from earlier work
[5] = tested on: peripheral-type BZ receptor; experiment: Antagonism of Ro5 4864-induced improvement of grip score by PK 14105 following head injury; type: in vivo, mice; details: for GRIP TEST SCORE: tested 1 hour after injury
Description: Male CF-1 mice (15-25 gm) were weighed and marked for identification purposes. Each individual mouse was restrained by grasping the dorsal skin of the neck until the mouse was still. An impounder was used to administer the trauma. The impounder consists of a weight suspended over the animal's head at a height sufficient to produce significant injury when dropped, and a means for immobilizing the animal (in this case, room to hold the animal in place). An example of such an impounder can be found in Hall, E.D., "High Dose Glucocorticoid Treatment Improves Neurological Recovery in Head Injured Mice," J. Neurosurg. 62:882-887, 883. The mouse was positioned properly under the impounder, and the weight was released from its preset height (11 CM).
as §1
The inhibitory agonist alone does (row 2 as compared to row 1).
^a Animals were administered vehicle or PK 14105 i.v. 30 min prior to
^b Animals were administered vehicle or Ro5 4864 i.v. 5 min after hea
^c Animals were tested 1 hour after headinjury

[6] = molecular target: T1, peripheral-type BZ receptors; details: # data from Wang et al., Mol. Pharmacol. 25:349-351 (1984); cited from earlier work
[7] = Physical trauma (head injury) model, grip score 18 hours post-injury; type: in vivo, mice (male CF-1); details: by extrapolation from Table 3 binding data
[8] = stroke treatment; cited from earlier work
[9] = in vivo; cited from earlier work

CC(=O)Oc1ccccc1C(=O)O [Aspirin]
effect on platelet aggregation (platelet aggregation): inhibit platelet aggregation

O=C(O)C1CN(CCCP(=O)(O)O)CCN1 (centres unmarked) [CPP]
adverse reactions (NMDA receptor [1]): respiratory depression and elevated CO2 level

O=C1CN=C(c2ccccc2Cl)c2cc([N+](=O)[O-])ccc2N1 [Clonazepam]
IC50 [2]: 9180 nM
effectiveness in treatment of CNS trauma/damage (in words) [3]: inactive in the treatment of CNS damage

O=C(O)[C@H]1CN(C/C=C/P(=O)(O)O)CCN1 [D-CPPene]
effect on blood pressure (NMDA receptor [4]): induces hypotension

CCC(C)N(C)C(=O)c1cc2ccccc2c(-c2cc([N+](=O)[O-])ccc2F)n1 (centres unmarked) [PK 14105, 1-(2-fluoro-5-nitrophenyl)-1-methyl-N(1-methyl-propyl)-3-isoquinoline carboxamide]
GRIP TEST SCORE ([5]; 10 mg/kg i.v. 30 min preinjury, postinjury vehicle): 1.40 ± 0.28
effect of the antagonist on grip score (in words) ([5]; antagonist alone): no statistically significant effect on grip score post trauma
effect on agonist-induced improvement of grip score (in words) ([5]; antagonist with inhibitory agonist, 1 hour post-trauma): prevents the agonist from improving grip score
binding affinity to peripheral-type BZ sites (in words) [2]: very strong binding affinity
IC50 ([2]; displacement of 3H-Ro5-4864 in brain homogenates, * data by procedure described herein, read-out: IC50): 4.5 nM
effectiveness in treatment of CNS trauma/damage (in words) [3]: inactive in treating CNS damage
functional class at the peripheral-type BZ receptor (in words) ([3]; inferred from binding and lack of grip score effect): antagonist to the peripheral-type BZ receptor
grip scores compared with controls (in words) ([3]; moderate and high doses, FIG. 8): stay the same as those of the controls

CN1C(=O)CN=C(c2ccccc2Cl)c2cc(Cl)ccc21 [Ro5-3448, 2',7-Dichloro-1,3-dihydro-1-methyl-5-phenyl-2H-1,4-benzodiazepin-2-one]
IC50 [6]: 35.2 nM
effectiveness for treatment of CNS trauma or disease (in words) [7]: effective

CN1C(=O)CN=C(c2ccccc2)c2ccccc21 [Ro5-3464, 1,3-Dihydro-1-methyl-5-phenyl-2H-1,4-benzodiazepin-2-one]
IC50 [2]: 1230 nM
binding affinity to peripheral-type BZ sites (in words) [2]: very high IC50 values
effectiveness in treatment of CNS trauma/damage (in words) [3]: non-effective; also recorded: inactive in the treatment of CNS damage

CN1C(=O)CN=C(c2ccccc2Cl)c2ccccc21 [Ro5-4608, 2'-Chloro-1,3-dihydro-1-methyl-5-phenyl-2H-1,4-benzodiazepin-2-one]
IC50 [6]: 215 nM

CN1C(=O)CN=C(c2ccc(Cl)cc2)c2cc(Cl)ccc21 [Ro5-4864, 4',7-Dichloro-1,3-dihydro-1-methyl-5-phenyl-2H-1,4-benzodiazepin-2-one]
GRIP TEST SCORE ([5]; preinjury 10 mg/kg PK 14104 (sic) plus postinjury 0.3 mg/kg Ro5 4864): 0.93 ± 0.21
GRIP TEST SCORE ([5]; preinjury vehicle, 0.3 mg/kg i.v. 5 min after injury, vehicle/vehicle 1.13 ± 0.27, P<0.05): 1.84 ± 0.24
effectiveness in treatment of CNS trauma/damage (in words) [3]: effective

CN1C(=O)CN=C(c2ccc(Cl)cc2)c2ccccc21 [Ro5-5115, 4'-Chloro-1,3-dihydro-1-methyl-5-phenyl-2H-1,4-benzodiazepin-2-one]
IC50 [6]: 106 nM

CN1C(=O)CN=C(c2ccc(F)cc2)c2ccccc21 [Ro5-5122, 4'-Fluoro-1,3-dihydro-1-methyl-5-phenyl-2H-1,4-benzodiazepin-2-one]
IC50 [6]: 442 nM

CN1C(=O)CN=C(c2ccc(Cl)cc2)c2cc(F)ccc21 [Ro5-6524, 4'-Chloro-7-fluoro-1,3-dihydro-1-methyl-5-phenyl-2H-1,4-benzodiazepin-2-one]
IC50 [6]: 340 nM

CN1C(=O)CN=C(c2ccc(Cl)cc2)c2cc(F)ccc21 [Ro5-6531, 4'-Chloro-7-fluoro-1,3-dihydro-1-methyl-5-phenyl-2H-1,4-benzodiazepin-2-one]
IC50 ([2]; displacement of 3H-Ro5-4864 in brain homogenates, * data by procedure described herein): 33.4 nM
effectiveness in treatment of CNS trauma/damage (in words) [3]: effective

COc1ccc(C2=NCC(=O)N(C)c3ccc(Cl)cc32)cc1 [Ro5-6669, 7-Chloro-1,3-dihydro-4'-methoxy-1-methyl-5-phenyl-2H-1,4-benzodiazepin-2-one]
IC50 [6]: 18.7 nM
effectiveness for treatment of CNS trauma or disease (in words) [7]: effective

CN1C(=O)CN=C(c2ccc(Cl)cc2Cl)c2cc(Cl)ccc21 [Ro5-6900, 2',4',7-Trichloro-1,3-dihydro-1-methyl-5-phenyl-2H-1,4-benzodiazepin-2-one]
IC50 [6]: 10 nM
effectiveness for treatment of CNS trauma or disease (in words) [7]: effective

CN1C(=O)CN=C(c2ccc(Cl)cc2Cl)c2cc(Cl)ccc21 [Ro5-6902, 4',6',7-Trichloro-1,3-dihydro-1-methyl-5-phenyl-2H-1,4-benzodiazepin-2-one]
IC50 [6]: 23.4 nM
effectiveness for treatment of CNS trauma or disease (in words) [7]: effective

C=CCN1C(=O)CN=C(c2ccc(Cl)cc2)c2cc(Cl)ccc21 [Ro5-6945, 1-Allyl-4',7-dichloro-1,3-dihydro-5-phenyl-2H-1,4-benzodiazepin-2-one]
IC50 [6]: 14.3 nM
effectiveness for treatment of CNS trauma or disease (in words) [7]: effective

CCN1C(=O)CN=C(c2ccc(Cl)cc2)c2cc(Cl)ccc21 [Ro5-6993, 4',7-Dichloro-1-ethyl-1,3-dihydro-5-phenyl-2H-1,4-benzodiazepin-2-one]
IC50 [6]: 6.1 nM
effectiveness for treatment of CNS trauma or disease (in words) [7]: effective

CN1C(=O)CN=C(c2c(Cl)cccc2Cl)c2cc(Cl)ccc21 [Ro7-5520, 2',6',7-Trichloro-1,3-dihydro-1-methyl-5-phenyl-2H-1,4-benzodiazepin-2-one]
IC50 [6]: 93.1 nM

CC(C)(C)OC(=O)c1ncn2c1[C@@H]1CCCN1C(=O)c1c(Br)cccc1-2 [Rol6-6028]
IC50 [2]: > 10000 nM
effectiveness in treatment of CNS trauma/damage (in words) [3]: inactive in the treatment of CNS damage

C[C@]12CCC(=O)C=C1CC[C@@H]1[C@@H]2C(=O)C[C@@]2(C)[C@H]1CC[C@]2(O)C(=O)CO [cortisone]
effect on neurologic outcome, morbidity or mortality in stroke [8]: no difference in morbidity or mortality

C[C@@H]1C[C@H]2[C@@H]3CCC4=CC(=O)C=C[C@]4(C)[C@@]3(F)[C@@H](O)C[C@]2(C)[C@@]1(O)C(=O)CO [dexamethasone]
adverse effects [9]: serious exacerbations of diabetes mellitus
effect on neurologic outcome, morbidity or mortality in stroke [8]: no difference in morbidity or mortality

OC[C@@H](O)[C@@H](O)[C@H](O)[C@H](O)CO [mannitol]
adverse effects [9]: severe rebound cerebral edema

O=C1C(CC[S+]([O-])c2ccccc2)C(=O)N(c2ccccc2)N1c1ccccc1 (centres unmarked) [sulfinpyrazone]
effect on platelet aggregation (platelet aggregation): inhibit platelet aggregation

Clc1ccccc1CN1CCc2sccc2C1 [ticlopidine]
effect on platelet aggregation (platelet aggregation): inhibit platelet aggregation

heparin
adverse effects [9]: high risk of brain and/or systemic hemorrhage
